Data on 2 compounds can be found in patent publication EP4289421A1, “COMBINATION OF PALMITOYLETHANOLAMIDE (PEA) AND MELATONIN FOR THE TREATMENT OF MAST CELL HYPER-REACTIVITY” (Erbozeta S.p.A., priority 2022, dated 2023).

In this assay the test system is human mast cell line (HMC-1.1). Nature of the assay: Release of pro-pain and pro-inflammatory mediators (degranulation) by activated human mast cells. In kind it is cell-based. To be noted: HMC-1.1 activated by compound 48/80 or substance P; substances added individually or combined. The procedure:
A human mast cell line (HMC-1.1) was activated both by compound 48/80 (a potent synthetic stimulant, available from Sigma-Aldrich) and by substance P (potent physiological stimulant, CAS number 33507-63-0). The release of pro-pain and pro-inflammatory mediators, such as histamine, TNF-α and IL-6, was then measured in the absence of PEA and melatonin, in the presence of PEA or melatonin alone as well as in the presence of PEA + melatonin. The use of mast cells of human origin, compared to classic murine mast cells, has allowed to measure, with high reliability, the release not only of histamine but also of protein mediators such as TNF-α and IL-6. The in vitro analysis then made it possible to evaluate the effects of the combination at the mast cell level in a highly specific and precise manner. A direct study on a biological organism, ultimately humans, would have been insensitive as the variation of pro-pain and pro-inflammatory mediators, detected in the blood or in any body fluid, would have depended on an action of PEA and melatonin on various cell types, and not exclusively on mast cells.

For the compound `CCCCCCCCCCCCCCCC(=O)NCCO` [PEA, palmitoylethanolamide], the “reduction in the release of mast cell mediators (histamine, TNF-α, IL-6)” value was “comparable reduction in the release of mast cell mediators”. Next, `COc1ccc2[nH]cc(CCNC(C)=O)c2c1` [melatonin]: “comparable reduction in the release of mast cell mediators”.
